Values joined by “and” are separate entries in the source; they are usually repeats but may differ in a detail not shown here. Identical values can stand only once.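 Following 48 hours of exposure in 96-well plates, responses at five concentrations were used to interpolate endpoints linearly. GI50 is the concentration that inhibits growth by half. TGI is the concentration that stops growth completely.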
Columns and labels:
Assay in all cases: NCI-60 cell line screen, 48 h
[1] = tested on: OVCAR-4 ovarian
[2] = tested on: MALME-3M melanoma
[3] = tested on: MDA-MB-231 breast
[4] = tested on: SR leukemia
[5] = tested on: SNB-75 CNS
[6] = tested on: RXF 393 renal
[7] = tested on: RPMI-8226 leukemia
[8] = tested on: A549 NSCLC
[9] = tested on: T-47D breast
[10] = tested on: COLO 205 colon

| Structure (SMILES) | GI50 [1] [µM] | TGI [1] [µM] | GI50 [2] [µM] | TGI [2] | GI50 [3] [µM] | TGI [3] | GI50 [4] [µM] | TGI [4] [µM] | GI50 [5] [µM] | TGI [5] [µM] | GI50 [6] [µM] | TGI [6] | GI50 [7] [µM] | TGI [7] [µM] | GI50 [8] [µM] | TGI [8] [µM] | GI50 [9] [µM] | TGI [9] [µM] | GI50 [10] [µM] | TGI [10] [µM] |
| --- | --- | --- | --- | --- | --- | --- | --- | --- | --- | --- | --- | --- | --- | --- | --- | --- | --- | --- | --- | --- |
| CCCN1C(=O)N(CCC)C2C1NC(=S)N2/N=C/C=C/c1ccccc1OC (stereo not given) | 1.95 | > 100 | 0.694 | 82.1 µM | 2.16 | 22.5 µM | 0.326 | > 35.1 | 0.233 | 2.3 | 0.484 | 85.9 µM | 0.69 | 16.7 | 0.868 | > 100 | 0.376 | 37 | 0.52 | 9.09 |
| NCCNc1c2c(c(NCCN)c3[nH]ccc13)C(=O)c1ccccc1C2=O | 0.296 | 1.34 | 0.177 | 0.658 µM | 0.109 | 0.605 µM | 0.0527 | 0.334 | 0.317 | 0.945 | 0.0488 | 0.525 µM | 0.278 | 1.21 | 0.63 | 2.53 | 1.63 | > 100 | 0.28 | 5.8 |
| O=C(O)Cc1cc(Cl)ccc1O |  | > 100 |  | > 100 µM |  | > 100 µM |  | > 100 |  | > 100 |  | > 100 µM |  | > 100 |  | > 100 |  | > 100 |  | > 100 |
| COc1ccc2[nH]cc(C3(c4c[nH]c5ccc(OC)cc45)C(=O)Nc4ccc(F)cc43)c2c1 | 2.76 | 11.6 | 2.44 | 22.4 µM | 1.57 | 3.56 µM | 2.03 | 4.97 | 1.38 | 8.23 | 2.31 | 6.54 µM | 4.41 | > 100 |  |  | 3.04 | 14.9 | 1.69 | 3.05 |
| C=C(Cl)C(Br)(CCl)CCC(Br)C(C)(C)Cl (stereo not given) | 3.25 | 8.24 | 2.22 | 8.51 µM and 4.96 µM | 2.02 | 2.32 µM and 3.77 µM |  | 7.28 |  | 11 |  | 6.98 µM and 5.42 µM |  | 3.06 |  | 38.1 | 30.1 |  | 2.13 | 4.64 |
| COc1ccc(-c2nn(-c3ccc(NC(=O)c4ccc(Cl)c(Cl)c4)cc3)cc2-c2ccncc2)cc1Cl | > 14.1 | > 50 | 5.88 | > 50 µM | 0.993 | 2.96 µM | 2.29 | > 50 | 1.26 | > 50 | 0.804 | 1.75 µM | 0.831 | > 11.6 | > 12.4 | > 50 | > 50 | > 50 | 1.45 | 3.8 |
| Nc1c(C(=O)Nc2ccncc2)sc2nc3c(cc12)CCCCCCCC3 | 0.861 | 1.6 | 0.87 | 1.66 µM | 0.899 | 1.66 µM | 1.62 | 50 | 0.819 | 1.53 | 0.938 | 1.7 µM | 1.23 | 2.71 | 1.01 | 2 | 0.94 | 2.21 | 0.997 | 2.18 |
| CCSc1ncnc2c1ncn2C1OC(CO)C(O)C1O (stereo not given) | 9.87 | > 100 | 9.41 | > 100 µM | 0.745 | > 100 µM | 25.3 | > 100 | > 34.1 | > 100 | 16 | > 90.2 µM | 4.5 | > 100 | 0.777 | > 60.2 | 1.69 | > 48.9 | 0.777 | > 100 |
| C=CCCCCOc1ccccc1-c1cnc(OCCCCC=C)n1C | 10.3 | 50.7 | 3.63 | 16.4 µM | 5.19 | 20.3 µM | 4.3 | 13.7 | 2.52 | 11.6 | 5.23 | 18.2 µM | 3.22 | 14.1 | 3.92 | 21.9 | 3.53 | 29.5 | 3.23 | 11.1 |
| COc1ccc(-c2nc3ccc(-c4nc5ccc(N6CCN(c7ccccc7)CC6)cc5[nH]4)cc3[nH]2)cc1OC | 1.52 | 3.04 | 1.05 | 2.52 µM | 2.48 | 5.05 µM | 0.341 | 2.83 | 1.06 | 3.8 | 1.59 | 3.41 µM | 0.19 | 2.3 | 2.03 | 6.73 | 1.68 | 5.19 | 0.77 | 2.81 |
| Cc1ccc(NC(=O)CC2CC2)cc1-c1ccc(C(=O)NCC2CC2)cc1 | > 25 | > 25 | > 25 | > 25 µM | > 25 | > 25 µM | 13.5 | > 25 | > 25 | > 25 | > 25 | > 25 µM | > 25 | > 25 | > 25 | > 25 | > 17.3 | > 25 | > 25 | > 25 |
| Nc1nc(/C=C\c2ccc([N+](=O)[O-])s2)nc(N2CCCC2)n1 | 5 | 14.1 | 12.3 | 28.5 µM | 1.56 | 9.35 µM | 1.62 | 6.49 | 15.1 | 44 | 3.99 | 21.1 µM | 1.26 | 4.39 | 2.97 | 22.9 | 1.68 | 14.1 | 0.524 | 3.5 |
| CNCC#Cc1c(F)ccc2c1/C(=C/c1[nH]ccc1OC)C(=O)N2 | 0.495 | 3.2 | 0.608 | 2.55 µM | 0.416 | 2.18 µM | 0.0715 | 0.513 | 0.0786 | 1.81 | 0.0454 | 0.147 µM | 0.322 | 1.47 | 0.129 | 2.71 | 0.671 | 4.36 | 0.113 | 0.48 |
| Cc1c2c(C#N)nccc2c(C)c2c1c1ccccc1n2Cc1ccccc1 |  | > 100 |  | > 100 µM |  | > 100 µM |  | > 100 |  | > 100 |  | > 100 µM |  | > 100 |  | > 100 |  | > 100 |  | > 100 |
| COc1c(OC[C@H](O)CN2CCOCC2)ccc2c3n(c(=NC(=O)c4cccnc4C)nc12)CCN3 | > 50 | > 50 | 0.982 | > 50 µM | > 50 | > 50 µM | > 50 | > 50 | 0.02 | 1.18 | 0.192 | 2.38 µM | > 50 | > 50 | 0.826 | > 50 | 0.0315 | 0.361 | 0.918 | > 50 |
| CC(C)Oc1ccc2cc(-c3nn(CC4CCNCC4)c4ncnc(N)c34)ccc2c1 | 5.24 | 19.5 |  |  | 3.05 | 9.94 µM | 1.53 | 4.44 | 1.09 | 15.2 | 2.78 | 9.73 µM | 3.1 | 12.9 | 14.5 | 28.3 | 9.81 | 24.9 | 3.39 | 13.2 |
| Clc1ccc2[nH]cc(-c3nnnn3-c3ccccc3)c2c1 | > 43.8 | > 100 | 13.5 | > 56.5 µM | 33.8 | > 100 µM | 4.4 | > 38.9 | 6.25 | 30.8 | 32.2 | > 100 µM | 14.5 | 43.3 | 20.8 | > 100 | > 45.3 | > 100 | 23.1 | > 57.8 |
| CC[C@H]1[C@@H]2C=C[C@@H]3[C@H]4C/C=C\C(=O)NCCC[C@@H]5NC(=O)/C(=C(O)/C=C/[C@@H]4C[C@@H]3[C@H]2C[C@H]1C)C5=O | 0.664 | 2.16 | 1.39 | 2.83 µM | 1.3 | 2.66 µM | 0.264 | 1.94 | 0.415 | 1.58 | 0.236 | 0.84 µM | 1.77 | 4.23 | 2 | 3.99 | 1.7 | 4.1 | 3.24 | 8.44 |
| O=C1OCC2=C1C(c1cccc(Br)c1)c1cc3c(cc1N2CCO)CCC3 (stereo not given) | 0.168 | 16 | 0.066 | 12.1 µM | 0.191 | 1.22 µM | 0.185 | 22.2 | 0.0607 | 9.41 | 0.0263 | 1.61 µM | 0.183 | 10 | 0.133 | 5.54 | 2.37 | 17.9 | 0.111 | 0.263 |
| Cn1cc(C2=C(c3cn(CCCCO)c4ccccc34)C(=O)NC2=O)c2ccccc21 | 13.9 | > 25 | > 21.6 | > 25 µM | 17.2 | > 25 µM | 6.05 | 21.4 | 2.31 | > 25 | 3.92 | 10.8 µM | 9.23 | > 25 | 7.97 | > 25 | 9.64 | 24.8 | 7.28 | > 19.5 |
| CS(=O)(=O)CCNCc1nc(-c2ccc3ncnc(Nc4ccc(OCc5cccc(C(F)(F)F)c5)cc4)c3c2)cs1 | > 25 | > 25 | 14 | > 25 µM | 12.6 | > 25 µM | > 22.2 | > 25 | 4.86 | 15.7 | 5.57 | > 25 µM | > 25 | > 25 | > 22 | > 25 | 5.42 | > 25 | > 23.9 | > 25 |
| CN(C)C(n1cc2c(c1)-c1ccc(Cl)cc1C(c1ccccc1F)=NC2)n1cc2c(c1)-c1ccc(Cl)cc1C(c1ccccc1F)=NC2 |  | > 100 |  | > 100 µM |  | > 100 µM |  | > 100 |  | 77.2 |  | 66.6 µM |  | > 100 |  | > 100 |  | > 100 |  | > 100 |
| Cc1ncc(C(=O)Nc2ccc(CN3CCN(C)CC3)c(C(F)(F)F)c2)cc1C#Cc1cnc(N)c2ccncc12 |  |  | 0.361 | 1.59 µM | 0.526 | 2.02 µM | 2.33 | 29.8 | 0.854 | 2.21 | 0.647 | 1.87 µM | 2.18 | 5.46 | 1.78 | 4.24 | 1.91 | 5.88 | 0.687 | 2.04 |
| CN1C(=O)N(C)C2C1NN=c1s/c(=C\c3ccc(Cl)cc3Cl)c(=O)n12 (stereo not given) | 1.66 | > 78.9 | 1.21 | > 81.6 µM | 0.479 | 19.6 µM | 0.0557 | > 100 | 0.0274 | 2.32 | 0.0862 | 0.925 µM | 0.364 | 16.3 | 0.243 | > 100 | 0.0576 | > 100 | 0.0951 | 2.58 |
| CC(=O)OC12C=CC(=O)N1c1ccccc1C(=O)O2 (stereo not given) |  | > 100 |  | > 85.8 µM | > 100 | > 100 µM |  | > 100 |  | > 100 |  | > 100 µM |  | > 100 |  | > 100 | > 100 | > 100 |  | > 100 |
